From patent US6545007B2, “Methods for inhibiting the transmission of HIV using topically applied substituted 6-benzyl-4-oxopyrimidines” (Idenix (Cayman) Limited, priority 2000, dated 2003)
Where two headings read alike, the source gives them in different places.

Columns and labels:
HIV-1 (IIIB strain) = type: cell-based; settings: for EC50: anti-HIV-1 activity; for SI: selectivity index (CC50/EC50)
Protocol: Compounds. Compounds were solubilized in DMSO at 200 mM and then diluted into culture medium.
(§1) Cells and viruses. MT-4, C8166,H9/IIIB and CEM cells were grown at 37° C. in a 5% CO2 atmosphere in RPMI 1640 medium, supplemented with 10% fetal calf serum (FCS), 100 IU/mL penicillin and 100 μg/mL streptomycin. Cell cultures were checked periodically for the absence of mycoplasma contamination with a MycoTect Kit (Gibco). Human immunodeficiency virus type-I (HIV-1, IIIB strain) was obtained from supernatants of persistently infected H9/IIIB cells.
HIV Titration. Titration of HIV was performed in C8166 cells by the standard limiting dilution method (dilution 1:2, four replica wells per dilution) in 96-well plates. The infectious virus titre was determined by light microscope scoring of cytopathicity after 4 days of incubation and the virus titres were expressed as CCID50/mL.
(§2) Anti-HIV Assays. Activity of the compounds against HIV-1 and HIV-2 multiplication in acutely infected cells was based on the inhibition of virus-induced cytopathicity in MT-4 and C8166 cells, respectively. Briefly, 50 μL of culture medium containing 1×10^4 cells were added to each well of flat-bottom microtiter trays containing 50 μl of culture medium with or without various concentrations of the test compounds. Then 20 μL of an HIV suspension containing 100 CCID50 were added. After a 4-day incubation at 37° C., the number of viable cells was determined by the 3-(4,5-dimethylthiazol-[…])-2,5-diphenyltetrazolium bromide (MTT) method. Cytotoxicity of the compounds was evaluated in parallel with their antiviral activity. It was based on the viability of mock-infected cells, as monitored by the MTT method.

mock-infected MT-4 cells = test: Cytotoxicity: viability of mock-infected cells by the MTT method; type: cell-based, human
Protocol: as §1, §2

HIV-1 = settings: MT-4 cells infected with very high virus load; p24 ELISA of cell-free supernatants at 4 day intervals for 4 weeks
Text: To evaluate the antiviral activity of test compounds the following cell types were used: T lymphocytes (PBLs) and monocytes from peripheral blood of healthy donors; U937, human monocyte cell line permissive for HIV replication; C8166 and MT-4, human CD^4+ T-cell lines permissive for HIV replication; H9, human CD4+ T-cell line permissive for HIV replication, but partially resistant to its cytopathic effect; H9/IIIB, subclone of H9 cells chronically infected with HIV-1 (strain IIIB). […] Cells were grown in RPMI-1640 (H9, MT-4, C8166, U937, PBMC, PBL) or in DMEM (HeLa, ME-180, fibroblasts) medium supplemented with 10% FCS, 100 units/mL penicillin and 100 μg/mL streptomycin. The cultures were incubated at 37° C. in a humidified, 5% CO2 atmosphere. The absence of mycoplasma contamination was periodically checked by the Hoechst staining method.
HIV-1(strains IIIB, NM, RF, Ba-L) and HIV-2 (ROD strain) were obtained from the supernatant of persistently infected cells. The CBL-20 strain of HIV-2, kindly obtained from “MRC AIDS Directed Program Reagent Project”, was propagated in MT-4 cells. Clinical isolates of HIV-1 from peripheral blood and from seminal fluid, were propagated in PBLs. The HIV stock solutions were titrated in C8166 cells and kept at −80° C. until use.
The levels of p24 viral protein were determined in the cell-free culture supernatants by the HIV-1 p24 antigen enzyme-linked immunosorbent assay kit (ELISA, Abbott).
To evaluate the ability of compounds to extinguish the infection, the following experimental conditions were followed. 10^6 MT-4 cells were infected at 20° C. for 1 hr with a very high virus load (up to 10 CCID50/cell; 1 CCID50=25-250 infectious virions), in the absence or in the presence of test compounds. […] For 4 weeks, at 4 days intervals, the anti-HIV activity of test compounds, alone and in combination, was evaluated by determining the following parameters: p24 levels; virus-induced cytopathogenicity; infectious virus yield; DNA and RNA viral sequences (by PCR).

[1] = acutely infected MT-4 cells, MTT

| EC50 (HIV-1 (IIIB strain); HIV-1-infected MT-4 cells) [nM] | EC50 (HIV-1 (IIIB strain); [1]) [nM] | SMILES | SI (HIV-1 (IIIB strain)) | CC50 (mock-infected MT-4 cells) [nM] | CC50 (mock-infected MT-4 cells; MTT) [nM] | concentration able to maintain a sustained reduction of p24 in the culture supernatants (HIV-1) [µM] |
| --- | --- | --- | --- | --- | --- | --- |
| 20 | – | CCCNc1nc(Cc2c(F)cccc2F)c(C)c(=O)[nH]1 [MC 1186] | >10,000 | > 200000 | – | – |
| – | 10 | CCCCNc1nc(C(C)c2c(F)cccc2F)c(C)c(=O)[nH]1 (centres unmarked) [MC 1187] | – | – | 83000 | – |
| – | 600 | O=c1cc(Cc2c(F)cccc2F)nc(N2CCOCC2)[nH]1 [MC 1188] | – | – | > 200000 | – |
| – | 30 | CCCCNc1nc(C(C)c2c(F)cccc2F)cc(=O)[nH]1 (centres unmarked) [MC 1189] | – | – | 52000 | – |
| – | 20 | CCCNc1nc(C(C)c2c(F)cccc2F)cc(=O)[nH]1 (centres unmarked) [MC 1190] | – | – | 103000 | – |
| – | 30 | CC(C)Nc1nc(C(C)c2c(F)cccc2F)cc(=O)[nH]1 (centres unmarked) [MC 1191] | – | – | 115000 | – |
| – | 40 | CCC(C)Nc1nc(C(C)c2c(F)cccc2F)cc(=O)[nH]1 (centres unmarked) [MC 1192] | – | – | 86000 | – |
| – | 50 | O=c1cc(Cc2c(F)cccc2F)nc(N2CCSCC2)[nH]1 [MC 1193] | – | – | > 200000 | – |
| – | 20 | O=c1cc(Cc2c(F)cccc2F)nc(N2CCCCC2)[nH]1 [MC 1194] | – | – | > 200000 | – |
| – | 20 | Cc1c(Cc2c(F)cccc2F)nc(N(C)C)[nH]c1=O [MC 1195] | – | – | > 200000 | – |
| – | 2100 | O=c1cc(Cc2c(F)cccc2F)nc(N2CCCC2)[nH]1 [MC 1196] | – | – | > 200000 | – |
| – | 260 | CCN(CC)c1nc(Cc2c(F)cccc2F)cc(=O)[nH]1 [MC 1202] | – | – | > 200000 | – |
| – | 360 | Cc1c(Cc2c(F)cccc2F)nc(N2CCN(C)CC2)[nH]c1=O [MC 1203] | – | – | > 200000 | – |
| – | 3800 | CCCN(CCC)c1nc(Cc2c(F)cccc2F)cc(=O)[nH]1 [MC 1204] | – | – | > 200000 | – |
| – | 47 | Cc1c(Cc2c(F)cccc2F)nc(N2CCOCC2)[nH]c1=O [MC 1205] | – | – | > 200000 | – |
| – | 90 | Cc1c(Cc2c(F)cccc2F)nc(N2CCSCC2)[nH]c1=O [MC 1206] | – | – | > 200000 | – |

The next lines start with the molecule.

| SMILES | EC50 (HIV-1 (IIIB strain); HIV-1-infected MT-4 cells) [nM] | EC50 (HIV-1 (IIIB strain); [1]) [nM] | SI (HIV-1 (IIIB strain)) | CC50 (mock-infected MT-4 cells) [nM] | CC50 (mock-infected MT-4 cells; MTT) [nM] | concentration able to maintain a sustained reduction of p24 in the culture supernatants (HIV-1) [µM] |
| --- | --- | --- | --- | --- | --- | --- |
| O=c1cc(Cc2c(F)cccc2F)nc(OC2CCCC2)[nH]1 [MC 1103] | 20000 | – | >10 | > 200000 | – | – |
| Cc1c(Cc2c(F)cccc2F)nc(NCc2ccccc2)[nH]c1=O [MC 1105] | 500 | – | 100 | 50000 | – | – |
| CCC(C)Sc1nc(C(C)c2c(F)cccc2F)c(C)c(=O)[nH]1 (centres unmarked) [MC 1109] | 30 | – | 6,666 | 200000 | – | – |
| CCC(C)Sc1nc(C(C)c2c(F)cccc2F)cc(=O)[nH]1 (centres unmarked) [MC 1110] | 30 | – | >6,666 | > 200000 | – | – |
| Cc1c(Cc2c(F)cccc2F)nc(NC(C)C)[nH]c1=O [MC 1118] | 30 | – | 6,333 | 190000 | – | – |
| CCNc1nc(Cc2c(F)cccc2F)cc(=O)[nH]1 [MC 1119] | 800 | – | >250 | > 200000 | – | – |
| CCC(C)Nc1nc(Cc2c(F)cccc2F)c(C)c(=O)[nH]1 (centres unmarked) [MC 1130] | 70 | – | 2,857 | 200000 | – | – |
| Cc1c(C(C)c2c(F)cccc2F)nc(SC(C)C)[nH]c1=O (centres unmarked) [MC 1137] | – | 7 | – | – | 200000 | – |
| CSCSc1nc(Cc2ccccc2)cc(=O)[nH]1 [MC 1140] | – | 20000 | – | – | > 200000 | – |
| CSCSc1nc(Cc2c(F)cccc2F)c(C(C)C)c(=O)[nH]1 [MC 1145, 6-(2,6-Difluorophenyhnethyl)-3,4-dihydro-5-(1-methylethyl)-2-(methylthiomethyl) thiopyrimidin-4-(3H)-one] | – | 100 | – | – | 200000 | – |
| Cc1c(C(C)c2c(F)cccc2F)nc(SCC(C)C)[nH]c1=O (centres unmarked) [MC 1153] | – | 10 | – | – | > 200000 | – |
| CCc1c(Cc2c(F)cccc2F)nc(SCSC)[nH]c1=O [MC 1157] | – | 110 | – | – | 50000 | – |
| CSCSc1nc(Cc2c(F)cccc2F)cc(=O)[nH]1 [MC 1161, 6-(2,6-Difluorophenyhnethyl)-3,4-dihydro-2-(methylthiomethyl)thiopyrimidin-4-(3H)-one] | – | 800 | – | – | > 200000 | – |
| CSCSc1nc(Cc2c(F)cccc2F)c(C)c(=O)[nH]1 [MC 1162, 6-(2,6-Difluorophenylmethyl)-3,4-dihydro-5-methyl-2-(methylthiomethyl)thiopyrimidin-4(3H)-one] | – | 120 | – | – | 30000 | – |
| CNc1nc(Cc2c(F)cccc2F)cc(=O)[nH]1 [MC 1167] | 1500 | – | >133 | > 200000 | – | – |
| CNc1nc(Cc2c(F)cccc2F)c(C)c(=O)[nH]1 [MC 1168] | 400 | – | 335 | 135000 | – | – |
| CNc1nc(C(C)c2c(F)cccc2F)c(C)c(=O)[nH]1 (centres unmarked) [MC 1170] | – | 30 | – | – | ≥ 200000 | – |
| Cc1c(C(C)c2c(F)cccc2F)nc(SC2CCCCC2)[nH]c1=O (centres unmarked) [MC 1174] | – | 18 | – | – | > 200000 | – |
| CCCCSc1nc(C(C)c2c(F)cccc2F)c(C)c(=O)[nH]1 (centres unmarked) [MC 1175] | – | 8 | – | – | 112000 | – |
| CNc1nc(C(C)c2c(F)cccc2F)cc(=O)[nH]1 (centres unmarked) [MC 1178] | – | 110 | – | – | 106000 | – |
| CC(c1cc(=O)[nH]c(NC2CCCCC2)n1)c1c(F)cccc1F (centres unmarked) [MC 1180] | – | 20 | – | – | 56000 | – |
| Cc1c(C(C)c2c(F)cccc2F)nc(NC2CCCCC2)[nH]c1=O (centres unmarked) [MC 1181] | – | 30 | – | – | 58000 | – |
| CN(C)c1nc(Cc2c(F)cccc2F)cc(=O)[nH]1 [MC 1182, 6-(2,6-Difluorophenylmethyl)-3,4-dihydro-2-N,N-dimethylaminopyrimidin-4-(3H)-one] | – | 50 | – | – | > 200000 | – |
| CN1CCN(c2nc(Cc3c(F)cccc3F)cc(=O)[nH]2)CC1 [MC 1183] | – | 7100 | – | – | > 200000 | – |
| CCCCNc1nc(Cc2c(F)cccc2F)c(C)c(=O)[nH]1 [MC 1185] | – | 20 | – | – | > 200000 | – |
| Cc1c(C(C)c2c(F)cccc2F)nc(N(C)C)[nH]c1=O (centres unmarked) [MC 1220] | – | – | – | – | – | 3.5 |
| Cc1c(C(C)c2c(F)cccc2F)nc(SC2CCCC2)[nH]c1=O (centres unmarked) [MC-1047, 2-Cyclopentylthio-6-{1-(2,6-difluorophenyl)ethyl}-3,4-dihydro-5-methylpyrimidin-4(3H)-one] | 9 | – | >22,222 | > 200000 | – | 10 |
| Cc1ccnc2c1NC(=O)c1cccnc1N2C1CC1 [Nevirapine, 11-cyclopropyl-5,11-dihydro-4-methyl-6H-dipyridol{3,2-b:2′,3′-e}diazepin-6-one, reference compound] | – | – | – | – | – | 300 |
